Reference: patent publication US5763404A, “Methods for using LHRH antagonists with low histamine release” (priority 1995, dated 1998)
Non-standard residues stand in square brackets, D forms with d. Residues, ends and D or L forms follow the SMILES beside them. *: point of attachment. dPhe(4-Cl) = N[C@H](Cc1ccc(Cl)cc1)C(=O)O; d2Nal = N[C@H](Cc1ccc2ccccc2c1)C(=O)O; Lys(iPr) = CC(C)NCCCC[C@H](N)C(=O)O; d3Pal = N[C@H](Cc1cccnc1)C(=O)O; Picolinoyl = O=C(c1ccccn1)*

Columns and labels:
[1] = system: anaesthesized rats; assay: wheal test, intradermal injection; assay type: in vivo, rat; design: Wheal (wheal response): unit not given here; details: Table XIV and text, unit not given
How it was run: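 Anaesthetized rats given intradermal injection of 10 ug peptide in 100 ul saline; area of the wheal calculated from its diameter.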

[2] = system: anaesthesized rats; details: From Reference 1; cited from earlier work

Wheal (wheal response) [1]: 123.0
Compound: CC(=O)N[C@H](Cc1ccc2ccccc2c1)C(=O)N[C@H](Cc1ccc(Cl)cc1)C(=O)N[C@H](Cc1cccnc1)C(=O)N[C@@H](CO)C(=O)N[C@@H](CCCCNC(=O)c1ccccn1)C(=O)N[C@H](CCCCNC(=O)c1ccccn1)C(=O)N[C@@H](CC(C)C)C(=O)N[C@@H](CCCCNC(C)C)C(=O)N1CCC[C@H]1C(=O)N[C@H](C)C(N)=O [IBR 25147, [N-Ac-D-2-Nal^1,D-pClPhe^2,D-3-Pal^3,PicLys^5,D-PicLys^6, ILys^8,D-Ala^10]-LHRH] (Ac-[d2Nal][dPhe(4-Cl)][d3Pal]SK(Picolinoyl)[dK](Picolinoyl)L[Lys(iPr)]P[dA]-NH2)
Wheal Area [2]: 123 ± 0 mm^2 /10 μg
